Results reported in publication PMC5633740, “Identification of YfiH and the Catalase CatA As Polyphenol Oxidases of Aeromonas media and CatA as a Regulator of Pigmentation by Its Peroxyl Radical Scavenging Capacity” (Frontiers in Microbiology, 2017).

Target: T1, CatA (PPO2; catalase; His6-tagged CatA) (Aeromonas media, UniProt A0AAE7AJ24)
T1 construct: gene E4188_09760; full ORF (1,449 bp) in pET-26b(+) NdeI/XhoI, His6-tagged, expressed in E. coli BL21(DE3), Ni-NTA; 55 kDa peak by gel filtration
T1 sequence (A0AAE7AJ24 entry or part of it): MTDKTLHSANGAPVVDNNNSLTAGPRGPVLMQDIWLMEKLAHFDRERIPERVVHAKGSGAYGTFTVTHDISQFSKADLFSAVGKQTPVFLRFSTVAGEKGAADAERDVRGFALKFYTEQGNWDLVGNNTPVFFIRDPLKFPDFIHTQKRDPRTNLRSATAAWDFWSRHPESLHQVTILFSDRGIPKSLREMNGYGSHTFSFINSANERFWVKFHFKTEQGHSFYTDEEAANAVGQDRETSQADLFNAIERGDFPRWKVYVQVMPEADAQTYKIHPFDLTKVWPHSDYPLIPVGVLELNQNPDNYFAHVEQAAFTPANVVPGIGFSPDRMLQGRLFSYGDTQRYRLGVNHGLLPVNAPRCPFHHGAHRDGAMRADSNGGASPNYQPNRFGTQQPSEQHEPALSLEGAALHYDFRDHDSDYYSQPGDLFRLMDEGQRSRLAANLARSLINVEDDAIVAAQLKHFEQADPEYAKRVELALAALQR
Assay: native-PAGE activity staining of purified protein
Type: biochemical
Settings: 5 mM L-DOPA, 50 mM Tris-HCl pH 8.0, 30 °C, 30 min; qualitative

With `N[C@@H](Cc1ccc(O)c(O)c1)C(=O)O` [L-DOPA, L-3,4-dihydroxyphenylalanine] the “native-PAGE activity staining of purified protein” value was “All His6-tagged proteins exhibited both catalase and PPO activity”.
